Assay [1] relates to N2a. Nature of the assay: Induction of neurite outgrowth in mouse Neuro2a cells at 1 uM after 48 hrs by morphometric analysis relative to control. The format is functional.
The subject of assay [2] is N2a. Nature of the assay: Induction of neurite outgrowth in mouse Neuro2a cells at 0.1 uM after 48 hrs by morphometric analysis relative to control. It counts as functional.

This note sets out measurements from ChEMBL document CHEMBL1949648, “Synthesis and neurite growth evaluation of new analogues of honokiol, a neolignan with potent neurotrophic activity” (2012).

On to `C=CCc1ccc(O)c(-c2ccc(O)c(-c3ccc(C(=O)OCC)c(C)n3)c2)c1`, for which the Activity in the assay on N2a [1] stood at 5.78%.

In the assay on N2a [1], `C=CCc1ccc(OC)c(-c2ccc(OC)c(C(=O)c3cn(Cc4ccccc4)nn3)c2)c1` yielded an Activity of 6.87%.

In the assay with N2a [2], `C=CCc1ccc(OC)c(-c2ccc(O)c(-c3ccn(C)n3)c2)c1` showed an Activity of 5.89%.

Molecule `C=CCc1ccc(O)c(-c2ccc(O)c(CC=C)c2)c1` [HONOKIOL] registered an Activity with N2a [1] of 41.03%.
